According to US20250304567A1, “PYRROLIDIONE DERIVATIVES AS INHIBITORS OF NF KAPPA B INDUCING KINASE” (priority 2022, published 2025):
Like-named read-outs stand apart in the source and are kept apart here.

Assays:
[1] = system: p-IKKa levels in L363 (NIK translocated multiple myeloma) cells; test: Effect of compounds on p-IKKa levels in L363 (NIK translocated multiple myeloma) cells (AlphaLISA SureFire Ultra p-IKKa Ser176/180); assay type: cell-based, human
Description: Assay 2: Effect of Compounds on p-IKKa Levels in L363 (NIK Translocated Multiple Myeloma) Cells
All compounds tested were dissolved and serially diluted in DMSO, 1:3 dilution for 11 points in an Echo compatible plate. 100% DMSO was added to columns 12 and 24 of the plate to serve as high and low signal controls. This compound plate was used to spot 20 nL of compound or DMSO into a Greiner 384 well TC plate (781080). The final DMSO concentration was 0.3% (v/v) in cell assays. Human L363 cells (ATCC) were cultured in RPM11640 medium supplemented with GlutaMax, non-essential amino acids, sodium pyruvate and 10% fetal bovine serum. Cells were routinely maintained at densities of 0.2×10^6 cells per ml-2×10^6 cells per mL at 37° C. in a humidified 5% CO2 atmosphere incubator. Cells were passaged twice a week splitting back to obtain the low density. The day before the assay, cells were washed twice in HBSS (Hank's Balanced Salt Solution), resuspended in Dulbecco's Modified Eagle Medium (DMEM)+0.5% IgG and protease free BSA (Jackson Immuno Research Laboratories), +/−250 ng/ml recombinant human B-cell activating factor (BAFF/BLyS/TNFSF13B) and incubated overnight at 37° C. in a humidified 5% CO2 atmosphere (bulk stimulation with or without BAFF). The next day, the cell concentration was adjusted to 1×10^7 cells/ml in DMEM+/−250 ng/ml BAFF+/−10 μM MG132 and plated at 10 μl/well into compound or DMSO spotted 384 well TC plates. Seeded cells were incubated at 37° C. in a humidified 5% CO2 atmosphere for 6 h. After 6 h, the plates were removed from the incubator and cell lysis was achieved by the addition of 2.5 μl 5× lysis buffer containing protease and phosphatase inhibitors, followed by shaking on a plate shaker at room temperature for 15 min. At the end of this incubation, lysed cells were sequentially treated and incubated with acceptor and donor bead mixes according to the manufacturer's protocol for a 1 plate/2-incubation suspension cell assay (AlphaLISA SureFire Ultra p-IKKa (Ser 176/180) Assay Kit (Perkin Elmer). Plates were read using an EnVision Multilabel Plate Reader (Perkin Elmer). Within an experiment, a concentration response curve for each compound was run in duplicate. The signal obtained in the test wells was normalized using high signal (BAFF stimulated cells, DMSO, MG132) and low signal (unstimulated cells, DMSO) controls. To determine the IC50, a sigmoidal curve was fitted to the plot of % inhibition versus Log10 compound concentration.

[2] = molecular target: Recombinant Human NF-kappaB-Inducing Kinase (NIK/MAP3K14) (Homo sapiens, UniProt Q99558); test: Inhibition of auto-phosphorylation of recombinant human NIK/MAP3K14 activity (AlphaScreen); assay type: biochemical; conditions: 5 μM ATP, 1 nM NIK, average if tested more than once
Chain of Recombinant Human NF-kappaB-Inducing Kinase (NIK/MAP3K14) (Q99558 whole entry): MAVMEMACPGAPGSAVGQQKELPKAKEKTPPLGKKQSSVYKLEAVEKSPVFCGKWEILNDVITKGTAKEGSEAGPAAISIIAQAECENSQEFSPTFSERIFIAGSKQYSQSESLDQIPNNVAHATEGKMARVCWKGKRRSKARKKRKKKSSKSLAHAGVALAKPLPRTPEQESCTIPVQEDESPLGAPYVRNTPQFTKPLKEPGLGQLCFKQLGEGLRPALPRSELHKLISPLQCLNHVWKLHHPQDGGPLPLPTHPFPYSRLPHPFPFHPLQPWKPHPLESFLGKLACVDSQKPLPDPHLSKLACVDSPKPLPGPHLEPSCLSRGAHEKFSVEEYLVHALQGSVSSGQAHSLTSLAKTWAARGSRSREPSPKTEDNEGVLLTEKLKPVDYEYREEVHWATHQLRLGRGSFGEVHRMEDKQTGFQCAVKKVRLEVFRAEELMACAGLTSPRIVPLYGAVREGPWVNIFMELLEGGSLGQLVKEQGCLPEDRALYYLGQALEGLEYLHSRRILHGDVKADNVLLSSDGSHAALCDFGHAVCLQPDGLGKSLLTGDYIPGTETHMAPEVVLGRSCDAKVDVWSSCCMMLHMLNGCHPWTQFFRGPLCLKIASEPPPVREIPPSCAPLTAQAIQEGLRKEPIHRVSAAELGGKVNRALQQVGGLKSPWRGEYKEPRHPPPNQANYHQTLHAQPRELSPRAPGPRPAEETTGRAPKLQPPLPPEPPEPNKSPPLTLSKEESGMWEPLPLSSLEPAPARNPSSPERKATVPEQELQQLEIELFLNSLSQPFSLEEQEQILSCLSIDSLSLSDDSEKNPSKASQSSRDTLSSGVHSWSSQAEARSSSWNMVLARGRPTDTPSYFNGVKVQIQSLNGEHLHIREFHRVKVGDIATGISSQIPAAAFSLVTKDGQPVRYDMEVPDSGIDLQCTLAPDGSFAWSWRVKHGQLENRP
Description: Assay 1: Inhibition of Auto-Phosphorylation of Recombinant Human NF-kappaB-Inducing Kinase (NIK/MAP3K14) Activity (AlphaScreen™)
NIK/MAP3K14 auto-phosphorylation activity was measured using the AlphaScreen™ (αscreen) format (Perkin Elmer). All compounds tested were dissolved in dimethyl sulfoxide (DMSO) and further dilutions were made in assay buffer. The final DMSO concentration was 0.7% (v/v) in assays. The assay buffer was 50 mM Tris pH 7.5 containing 1 mM EGTA (ethylene glycol tetraacetic acid), 1 mM DTT (dithiothreitol), 0.1 mM Na3VO4, 5 mM MgCl2, and 0.01% Tween®20. The assays were carried out in 384 well Proxiplates (Perkin Elmer). The incubations consisted of the compound, 5 μM Adenosine-5′-triphosphate (ATP), and 1 nM NIK/MAP3K14. Incubations were initiated by the addition of GST-tagged NIK/MAP3K14 enzyme, carried out for 2 h at 25° C. and terminated by addition of stop buffer containing anti-phospho-IKK Ser176/180 antibody. Protein A Acceptor and Glutathione-Donor beads were added before reading using an EnVision Multilabel Plate Reader (Perkin Elmer). The signal obtained in the wells was normalized using high (full enzyme activity, 0.7% DMSO) and low controls (no enzyme activity, 0.7% DMSO, no ATP). IC50's were determined by fitting a sigmoidal curve to % inhibition of control versus Log10 compound concentration.

[3] = Homo sapiens, L-363, p-IKKa levels in L363 cells, average if tested more than once, read-out: Assay 2 IC50
[4] = p-IKKa levels in L363 cells, average if tested more than once, read-out: Assay 2 IC50

Row | SMILES | IC50 [1, 3] | IC50 [2] | IC50 [1, 4] | IC50 ([1]; Homo sapiens, L-363, read-out: Assay 2 IC50)
1 | CN1CC[C@@](O)(c2cccc(-c3nc(-c4ccnc(NC5CCOc6cccnc65)n4)cs3)c2)C1=O (stereo partly drawn) [Example 227] | > 501 nM | < 100 nM | – | –
2 | CN1CC[C@@](O)(c2cccc(-c3nc(-c4ccnc(NCc5cnn(C)c5)n4)cs3)c2)C1=O [Example 183] | > 501 nM | < 100 nM | – | –
3 | CN1CC[C@@](O)(c2cccc(-c3nc(-c4ccnc(Nc5cnn(CC6CC6)c5)n4)cs3)c2)C1=O [Example 287, (R)-3-(3-(4-(2-((1-(cyclopropylmethyl)-1H-pyrazol-4-yl)amino)pyrimidin-4-yl)thiazol-2-yl)phenyl)-3-hydroxy-1-methylpyrrolidin-2-one] | 100 to 500 nM | < 100 nM | – | –
4 | Cc1ccnc(CNc2nccc(-c3csc(-c4cccc([C@]5(O)CCN(C)C5=O)c4)n3)n2)n1 [Example 114, (R)-3-hydroxy-1-methyl-3-(3-(4-(2-(((4-methylpyrimidin-2-yl)methyl)amino)pyrimidin-4-yl)thiazol-2-yl)phenyl)pyrrolidin-2-one] | > 501 nM | 100 to 500 nM | – | –
5 | CN1CC(F)(F)C(O)(c2cccc(-c3nc(-c4ccnc(Nc5ccn(C)n5)n4)cs3)c2)C1=O (single isomer, unassigned) [Example 35, 4,4-difluoro-3-hydroxy-1-methyl-3-(3-(4-(2-((1-methyl-1H-pyrazol-3-yl)amino)pyrimidin-4-yl)thiazol-2-yl)phenyl)pyrrolidin-2-one] | – | > 501 nM | > 501 nM | –
6 | CN1CC[C@@](O)(c2cncc(-c3csc(-c4ccnc(Nc5cnn(C)c5)n4)n3)c2)C1=O (single isomer, unassigned) [Example 152, (R)-3-hydroxy-1-methyl-3-(5-(2-(2-((1-methyl-1H-pyrazol-4-yl)amino)pyrimidin-4-yl)thiazol-4-yl)pyridin-3-yl)pyrrolidin-2-one or (S)-3-hydroxy-1-methyl-3-(5-(2-(2-((1-methyl-1H-pyrazol-4-yl)amino)pyrimidin-4-yl)thiazol-4-yl)pyridin-3-yl)pyrrolidin-2-one] | 100 to 500 nM | < 100 nM | – | –
7 | CN1CC[C@@](O)(c2cccc(-c3nc(-c4ccnc(Nc5cn6ccccc6n5)n4)cs3)c2)C1=O [Example 179] | > 501 nM | > 501 nM | – | –
8 | CN1CC[C@@](O)(c2cccc(-c3nc(-c4ccnc(Nc5cnc6ccc(F)cn56)n4)cs3)c2)C1=O [Example 279, (R)-3-(3-(4-(2-((6-Fluoroimidazo[1,2-a]pyridin-3-yl)amino)pyrimidin-4-yl)thiazol-2-yl)phenyl)-3-hydroxy-1-methylpyrrolidin-2-one] | > 501 nM | > 501 nM | – | –
9 | Cc1cn(CC(F)(F)F)nc1Nc1nccc(-c2csc(-c3cccc([C@]4(O)CCN(C)C4=O)c3)n2)n1 [Example 245] | > 501 nM | > 501 nM | – | –
10 | CN1CC[C@@](O)(c2cccc(-c3cccc(-c4ccnc(NCCCO)n4)n3)c2)C1=O [Example 23, (R)-3-Hydroxy-3-(3-(6-(2-((3-hydroxypropyl)amino)pyrimidin-4-yl)pyridin-2-yl)phenyl)-1-methylpyrrolidin-2-one] | > 501 nM | > 501 nM | – | –
11 | Cc1cnc(CNc2nccc(-c3csc(-c4cccc([C@]5(O)CCN(C)C5=O)c4)n3)n2)nc1 [Example 208] | > 501 nM | > 501 nM | – | –
12 | Cc1cc(CNc2nccc(-c3csc(-c4cccc([C@]5(O)CCN(C)C5=O)c4)n3)n2)n[nH]1 [Example 113, (R)-3-hydroxy-1-methyl-3-(3-(4-(2-(((3-methyl-1H-pyrazol-5-yl)methyl)amino)pyrimidin-4-yl)thiazol-2-yl)phenyl)pyrrolidin-2-one] | > 501 nM | < 100 nM | – | –
13 | CN1CC[C@@](O)(c2cccc(-c3nc(-c4ccnc(Nc5cccnc5)n4)cs3)c2)C1=O [Example 68, (R)-3-hydroxy-1-methyl-3-(3-(4-(2-(pyridin-3-ylamino)pyrimidin-4-yl)thiazol-2-yl)phenyl)pyrrolidin-2-one] | > 501 nM | > 501 nM | – | –
14 | CN1CC[C@@](O)(c2cccc(-c3nc(-c4ccnc(Nc5nc(C(F)(F)F)cs5)n4)cs3)c2)C1=O [Example 248] | 100 to 500 nM | < 100 nM | – | –
15 | CN1CCC(O)(c2cc(F)cc(-c3csc(-c4ccnc(Nc5ccn(C)n5)n4)n3)c2)C1=O (single isomer, unassigned) [Example 26, 3-(3-fluoro-5-(2-(2-((1-methyl-1H-pyrazol-3-yl)amino)pyrimidin-4-yl)thiazol-4-yl)phenyl)-3-hydroxy-1-methylpyrrolidin-2-one] | – | > 501 nM | > 501 nM | –
16 | CN1CC[C@@](O)(c2ccnc(-c3ccn(-c4ccnc(Nc5cn(CC(F)F)nc5OC5CC5)n4)n3)c2)C1=O (single isomer, unassigned) [Example 154, (R)-3-(2-(1-(2-((3-cyclopropoxy-1-(2,2-difluoroethyl)-1H-pyrazol-4-yl)amino)pyrimidin-4-yl)-1H-pyrazol-3-yl)pyridin-4-yl)-3-hydroxy-1-methylpyrrolidin-2-one or (S)-3-(2-(1-(2-((3-cyclopropoxy-1-(2,2-difluoroethyl)-1H-pyrazol-4-yl)amino)pyrimidin-4-yl)-1H-pyrazol-3-yl)pyridin-4-yl)-3-hydroxy-1-methylpyrrolidin-2-one] | < 100 nM | < 100 nM | – | –
17 | CN1C(=O)[C@@](O)(c2cncc(-c3csc(-c4ccnc(Nc5ccn(C)n5)n4)n3)c2)C[C@@H]1C(F)(F)F (single isomer, unassigned) [Example 62] | > 501 nM | > 501 nM | – | –
18 | Cc1cnoc1Nc1nccc(-c2csc(-c3cccc([C@]4(O)CCN(C)C4=O)c3)n2)n1 [Example 274, (R)-3-Hydroxy-1-methyl-3-(3-(4-(2-((4-methylisoxazol-5-yl)amino)pyrimidin-4-yl)thiazol-2-yl)phenyl)pyrrolidin-2-one] | > 501 nM | > 501 nM | – | –
19 | CN1CC[C@@](O)(c2cccc(-c3nc(-c4ccnc(Nc5cnn6c5NCCC6)n4)cs3)c2)C1=O [Example 54, (R)-3-hydroxy-1-methyl-3-(3-(4-(2-((4,5,6,7-tetrahydropyrazolo[1,5-a]pyrimidin-3-yl)amino)pyrimidin-4-yl)thiazol-2-yl)phenyl)pyrrolidin-2-one] | 100 to 500 nM | < 100 nM | – | –
20 | CN1CC[C@@](O)(c2cccc(-c3csc(-c4ccnc(Nc5cnn(CC6CC6)c5)n4)n3)c2)C1=O [Example 20, (R)-3-(3-(2-(2-((1-(cyclopropylmethyl)-1H-pyrazol-4-yl)amino)pyrimidin-4-yl)thiazol-4-yl)phenyl)-3-hydroxy-1-methylpyrrolidin-2-one] | > 501 nM | 100 to 500 nM | – | –
21 | Cc1cncnc1Nc1nccc(-c2csc(-c3cccc([C@]4(O)CCN(C)C4=O)c3)n2)n1 [Example 105, (R)-3-hydroxy-1-methyl-3-(3-(4-(2-((5-methylpyrimidin-4-yl)amino)pyrimidin-4-yl)thiazol-2-yl)phenyl)pyrrolidin-2-one] | – | – | – | > 501 nM
22 | Cc1cc(CNc2nccc(-c3csc(-c4cccc([C@]5(O)CCN(C)C5=O)c4)n3)n2)n[nH]1 [Example 195] | > 501 nM | – | – | –
